Experimental data reported in publication PMC6270821, “ROS-Mediated Cytotoxic Effect of Copper(II) Hydrazone Complexes against Human Glioma Cells” (Molecules, 2014).

What was measured:
[1] = tested on: U87 (p53 wild-type glioblastoma multiforme) cells; assay: MTT cytotoxicity assay, U87 cells; assay type: cell-based, human; details: for IC50: MTT, 48 h treatment
Protocol: (§1) The in vitro cytotoxic effects of H2AcMe, H2BzMe and complexes 1 and 2 against wild type p53 U87 and mutant p53 T98 glioblastoma cells and against MRC-5 fibroblasts cells were tested using cisplatin as a positive control. To determine the IC50 (concentration that inhibits 50% of cell survival) values the cytotoxic effects were quantified using the 3-(4,5-dimethyl-2-thioazolyl)-2,5-diphenyl tetrazolium bromide (MTT) colorimetric assay. All tested compounds were cytotoxic against both glioma cell lines in a dose-dependent way. The IC50 values (see Table 1) were found in the micromolar range. Despite their cytotoxic activity, all compounds were less toxic to fibroblasts cells than cisplatin. CuCl2 evoked only mild cytotoxicity in all cell lineages with IC50 higher than 100 µM.
(§2) U87 (p53 wild-type glioblastoma multiforme) and T98 (p53 mutant glioblastoma multiforme) malignant human tumor cells and MRC5 (Human Fetal Lung Fibroblast) cells were obtained from the American Type Culture Collection (ATCC, Manassas, VA, USA). Cell lines were grown as monolayer in Dulbecco’s Modified Eagle’s Medium (DMEM, Gibco, Rockville, MD, USA), supplemented with 10% fetal bovine serum (Cultilab, Campinas, São Paulo, Brazil) and antibiotics (50 U/mL penicillin/50 […] streptomycin), in a humidified atmosphere air/CO2 (95%/5%) at 37 °C. Cells 80% confluents were used in all experiments. For all experiments, cells were seeded in 96-well plates, at a density of 1000 cells/well. After 24 h incubation cells were treated.
(§3) To determine the IC50 values the cytotoxic effects were quantified using the 3-(4,5-dimethyl-2-thioazolyl)-2,5-diphenyltetrazolium bromide (MTT) colorimetric assay. Briefly, cells were treated with increasing concentrations (10^−12, 10^−11, 10^−10, 10^−9, 10^−8, 10^−7, 10^−6, 10^−5, 10^−4 mol·L^−1) of either cisplatin (positive control) or test compounds (H2AcMe, H2BzMe, 1 and 2). The compounds were previously dissolved in dimethyl sulfoxide (DMSO) and the final concentrations were adjusted in DMEM in such manner that the final DMSO concentration was lower than 0.5%. Following 48 h treatment, MTT reagent was added to each well. Following another 4 h of incubation at 37 °C, DMSO was added to each well to dissolve formazan precipitate and absorbance was measured at 570 nm. Tests using DMSO (0.5% in DMEM) as negative control were carried out in parallel. All tests were performed in quadruplicates with full agreement between the results. Statistical analysis was carried out by the unpaired, one-tailed Student’s t testing using a p value of 0.05. A value of p < 0.05 was considered significant.

[2] = tested on: T98 (p53 mutant glioblastoma multiforme) cells; assay: MTT cytotoxicity assay, T98 cells; assay type: cell-based, human; details: for IC50: MTT, 48 h treatment; for selectivity index (SI = IC50MRC5/IC50tumor cell), T98: T98 vs MRC5
Protocol: as §1, §2, §3

[3] = tested on: MRC5 (Human Fetal Lung Fibroblast) cells; assay: MTT cytotoxicity assay, MRC5 fibroblasts; assay type: cell-based
Protocol: as §1, §2, §3

[4] = tested on: pUC 19 plasmid DNA; assay: Agarose gel electrophoresis of supercoiled plasmid DNA; set-up: species or system Escherichia coli; details: 100 µM, Tris-HCl pH 7.20, 37 °C, 24 h
Protocol: Studies of interactions between the compounds under study and supercoiled plasmid DNA by agarose gel electrophoresis were carried out. Thus, 136 ng of purified plasmid DNA-pUC 19 from Escherichia coli (Sigma-Aldrich Brasil, São Paulo, Brazil) were incubated with compounds 1, 2 and cisplatin at 100 µM in Tris-HCl buffer (NaCl 50 mM, Tris-HCl 5 mM, pH = 7.20). The mixture was incubated at 37 °C for 24 h. Thereafter, the reactions were quenched by adding 5 µL of the loading buffer solution (50 mM Tris, pH 7.20, 0.01% bromophenol blue, 50% glycerol, and 250 mM EDTA). The samples were analyzed by 1% agarose gel electrophoresis in 0.5 × TBE buffer for 1 h 40 min at […]. The gel was stained after electrophoresis in 0.5× TBE buffer with 2.5 µg·mL^−1 ethidium bromide for 15 min and visualized by UV light.

[5] = tested on: U87 cells; assay: ROS generation, DCFH-DA assay, U87 cells; assay type: cell-based, human; details: 1 × 10^−5 mol/L, 24 h
Text: (§4) To examine the effects of H2AcMe, H2BzMe and their complexes 1 and 2 on the generation of free radicals (reactive oxygen species, ROS), we used the 2',7'-dichlorodihydrofluorescein diacetate (DCFH-DA) assay.
(§5) ROS accumulation was detected using dichlorodihydrofluorescein diacetate (DCFH-DA, Sigma). DCFH-DA is a non-fluorescent compound, that when it is taken up by passive diffusion into the cells, is hydrolyzed by esterases to yield non-permeable DCFH. In the presence of ROS, DCFH is oxidized to the fluorescent DCF. Tumor cells were treated with the compounds for 24 h and were then incubated with DCFH-DA (1 × 10^−5 mol·L^−1) for 30 min at 37 °C. Following incubation, the cells were washed twice with PBS. Thereafter, the cells were observed under the fluorescent microscope Zeiss Axionplan coupled with a digital camera at excitation and emission wavelengths of 488 and 525 nm, respectively. Data were analyzed using ImageJ (ImageJ, National Institute of Health, Bethesda, MD, USA) and expressed as percentages of DCFDA fluorescence of the corresponding control.

[6] = tested on: MRC5 cells; assay: ROS generation, DCFH-DA assay, MRC5 cells; assay type: cell-based, human; details: 1 × 10^−5 mol/L, 24 h
Text: as §4, §5

[7] = Homo sapiens, MRC5, 48 h treatment

Compound: N.N.[Cl][Pt][Cl] [Cisplatin, [cis(Diaminedichloro)platinum(II)], reference compound]
- IC50 [1]: 1.76 ± 0.22 µM
- selectivity index (SI = IC50MRC5/IC50tumor cell), U87 ([1]; U87 vs MRC5): 2.87
- IC50 [2]: 5.31 ± 1.94 µM
- selectivity index (SI = IC50MRC5/IC50tumor cell), T98 [2]: 0.95
- IC50 ([3]; 48 h treatment): 5.05 ± 0.71 µM
- alteration in the electrophoretic mobility of pUC 19 plasmid DNA [4]: strong modification

Compound: [Cl][Cu][Cl] [CuCl2, reference compound]
- IC50 [1]: > 100 µM
- IC50 [2]: > 100 µM
- IC50 ([3]; 48 h treatment): > 100 µM
- alteration in the electrophoretic mobility of pUC 19 plasmid DNA [4]: no alteration in the electrophoretic mobility

Compound: CC(=O)NN=C(C)c1ccccn1 [H2AcMe, 2-Acetylpyridine acetylhydrazone]
- IC50 ([1]; Homo sapiens, U-87 MG): 67.6 ± 4.08 µM
- IC50 ([2]; Homo sapiens, T98, 48 h): 13.8 ± 4.89 µM
- IC50 [3, 7]: 19.8 ± 4.15 µM
- ROS levels in U87 cells compared with T98 cells [5]: higher levels of ROS in U87 cells
- ROS levels in MRC5 cells compared with glioma cells [6]: lower levels of ROS in MRC5 cells

Compound: CC(=O)NN=C(c1ccccc1)c1ccccn1 [H2BzMe, 2-benzoylpyridine acetylhydrazone]
- IC50 ([1]; Homo sapiens, U-87 MG): 52.3 ± 10 µM
- IC50 ([2]; Homo sapiens, T98, 48 h): 19.8 µM
- IC50 [2]: 19.7 ± 1.06 µM
- selectivity index (SI = IC50MRC5/IC50tumor cell), T98 [2]: good selectivity index
- IC50 [3, 7]: 62.3 ± 7.76 µM
- ROS levels in U87 cells compared with T98 cells [5]: equally effective in both cell lineages
- ROS levels in MRC5 cells compared with glioma cells [6]: the same increasing in ROS levels in MRC5 and in both malignant cells
